Experimental findings from ChEMBL document CHEMBL5614395 (Eur J Med Chem, 2024) are described below.

This series in a line: in vitro. The note with it: human, Caco-2.

As for `COc1cc(-n2ncc3c(-c4cccc(-c5ccc(CN(C)C67CCC(C(=O)O)(CC6)CC7)c(OC)n5)c4Cl)cccc32)cc(OC)c1CN(C)[C@H]1C[C@H](O)C1`, the Papp A→B – broadly, the apparent permeability from the apical to the basolateral side of a cell layer – was 3 ×10⁻⁶ cm/s.
In the case of `COc1cc(-n2ncc3c(-c4cccc(-c5ccc(CN[C@H]6C[C@@H](O)C6)c(OC)n5)c4Cl)cccc32)cc(OC)c1CN1CC(C(=O)O)C1`, the Papp A→B was found to be 0.1 ×10⁻⁶ cm/s.
As for `COc1cc(-n2ncc3c(-c4cccc(-c5ccc(CN[C@H]6C[C@@H](O)C6)c(OC)n5)c4Cl)cccc32)cc(OC)c1CN(C)C12CCC(C(=O)O)(CC1)CC2`, the figure is 0.4 ×10⁻⁶ cm/s.
